Source: patent US9969687B2, “Compounds useful as CCR9 modulators” (Norgine B.V., priority 2013, dated 2018)

The compounds below were run against CCR9 (Homo sapiens (Human), UniProt P51686) (assay: FLIPR calcium flux assay using MOLT4 cells, TECK stimulation). Settings: MOLT4 cells (human T-cell line).
Format: cell-based
Procedure: Biological Activity: FLIPR Assay Using MOLT4 Cells
A calcium flux assay was used to determine the ability of the compounds to interfere with the binding between CCR9 and its chemokine ligand (TECK) in MOLT4 cells (a human T-cell line). MOLT4 cells were seeded (100,000 cells/well) in corning cell culture plates (Cat #3603) in assay buffer (1×HBSS, 20 mM HEPES) containing 2.5 mM Probenecid. The plate was centrifuged at 1200 rpm for 3 minutes and incubated at 37° C./5% CO2 for 2 hours. A 0.3× Fluo-4 NW calcium dye was prepared in assay buffer containing 5 mM Probenecid and stored in the dark. Each well was loaded with 25 μl of 0.3× Fluo-4 NW calcium dye and incubated at 37° C./5% CO2 for 60 minutes and then at room temperature for 30 minutes. A half-log serially diluted concentration response curve was prepared at a 4× concentration for each (10 μM-0.1 nM final assay concentration) and 25 μL of the compound then transferred to the cells (100 μL final volume) for 60 minutes prior to stimulation (30 minutes at 37° C./5% CO2 and 30 minutes at room temperature). […] The increased in intracellular calcium levels was measured with the FLIPR instrument. The potency of the compound as CCR9 antagonist was calculated as an IC50 using GraphPad Prism software (variable slope four parameter). The Ki of the compound was determined from the IC50 values using the following equation. IC50/1+(Agonist (TECK) conc. used in assay/EC50 of agonist (TECK) generated on day of experiment) Ki calculation: […]

Chain of CCR9 (P51686 whole entry): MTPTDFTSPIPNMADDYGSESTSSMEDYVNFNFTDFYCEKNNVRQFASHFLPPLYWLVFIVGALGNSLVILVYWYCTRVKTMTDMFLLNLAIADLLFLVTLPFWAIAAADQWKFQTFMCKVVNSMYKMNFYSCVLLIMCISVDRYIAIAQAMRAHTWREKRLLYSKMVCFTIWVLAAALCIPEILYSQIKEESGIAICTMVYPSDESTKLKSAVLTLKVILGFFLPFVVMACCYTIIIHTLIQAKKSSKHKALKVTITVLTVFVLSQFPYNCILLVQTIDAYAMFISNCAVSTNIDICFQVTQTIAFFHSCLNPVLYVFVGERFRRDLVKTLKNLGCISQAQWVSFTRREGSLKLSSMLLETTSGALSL

Compound | Ki [nM]
O=C1c2cccc(NS(=O)(=O)c3cccc(C(F)(F)F)c3)c2C(=O)N1c1cccnc1 [Compound 4] | 2710
O=C1c2cccc(NS(=O)(=O)c3ccc(OC(F)(F)F)cc3)c2C(=O)N1c1cccnc1 [Compound 5] | 123
O=C1c2cccc(NS(=O)(=O)c3ccc(Cl)c(C(F)(F)F)c3)c2C(=O)N1c1cccnc1 [Compound 7] | 206
O=C1c2cccc(NS(=O)(=O)c3ccc(F)c(C(F)(F)F)c3)c2C(=O)N1c1cccnc1 [Compound 8] | 1320
CC(C)(C)c1cccc(S(=O)(=O)Nc2cccc3c2C(=O)N(Cc2cccnc2)C3=O)c1 [Compound 14] | 1550
O=C1c2cccc(NS(=O)(=O)c3ccc(C(F)(F)F)cc3)c2C(=O)N1Cc1cccnc1 [Compound 19] | 758
CC(C)(C)c1ccc(S(=O)(=O)Nc2cccc3c2C(=O)N(c2ccc(C#N)cc2)C3=O)cc1 [Compound 36] | 1210
N#Cc1cccc(N2C(=O)c3cccc(NS(=O)(=O)c4ccc(C(F)(F)F)cc4)c3C2=O)c1 [Compound 39] | 611
N#Cc1cccc(N2C(=O)c3cccc(NS(=O)(=O)c4ccc(OC(F)(F)F)cc4)c3C2=O)c1 [Compound 40] | 1360
N#Cc1cccc(N2C(=O)c3cccc(NS(=O)(=O)c4ccc(Cl)c(C(F)(F)F)c4)c3C2=O)c1 [Compound 41] | 167
O=C1c2c(Cl)ccc(NS(=O)(=O)c3ccc(Cl)c(C(F)(F)F)c3)c2C(=O)N1c1cccnc1 [Compound 48] | 171
O=C1c2c(Cl)ccc(NS(=O)(=O)c3ccc(OC(F)F)cc3)c2C(=O)N1c1cccnc1 [Compound 52] | 187
CC(C)c1ccc(S(=O)(=O)Nc2ccc(Cl)c3c2C(=O)N(c2cccnc2)C3=O)cc1 [Compound 57] | 38
CC(C)(C#N)c1ccc(S(=O)(=O)Nc2ccc(Cl)c3c2C(=O)N(Cc2cccnc2)C3=O)cc1 [Compound 79] | 33
CC(C)c1ccc(S(=O)(=O)Nc2ccc(Cl)c3c2C(=O)N(Cc2cccnc2)C3=O)cc1 [Compound 80] | 173
CC(C)(C#N)c1ccc(S(=O)(=O)Nc2ccc(Cl)c3c2C(=O)N(Cc2ccc[n+]([O-])c2)C3=O)cc1 [Compound 81] | 148
COc1cc(N2C(=O)c3c(Cl)ccc(NS(=O)(=O)c4ccc(C(C)(C)C)cc4)c3C2=O)c[n+]([O-])c1 [Compound 91, 3-(4-(4-(tert-butyl)phenylsulfonamido)-7-chloro-1,3-dioxoisoindolin-2-yl)-5-methoxypyridine 1-oxide] | 50
COc1cncc(N2C(=O)c3c(Cl)ccc(NS(=O)(=O)c4ccc(C(F)(F)F)cc4)c3C2=O)c1 [Compound 92] | 255
COc1cncc(N2C(=O)c3c(Cl)ccc(NS(=O)(=O)c4ccc(Cl)c(C(F)(F)F)c4)c3C2=O)c1 [Compound 93] | 217

Compound | Ki [nM]
COc1cncc(N2C(=O)c3c(Cl)ccc(NS(=O)(=O)c4ccc(OC(F)(F)F)cc4)c3C2=O)c1 [Compound 94] | 244
Cc1cncc(N2C(=O)c3c(Cl)ccc(NS(=O)(=O)c4ccc(C(C)C)cc4)c3C2=O)c1 [Compound 105] | 311
CC(C)(C)c1ccc(S(=O)(=O)Nc2ccc(Cl)c3c2C(=O)N(C(C)(C)c2cccnc2)C3=O)cc1 [Compound 107, 4-(tert-butyl)-N-(7-chloro-1,3-dioxo-2-(2-(pyridin-3-yl)propan-2-yl)isoindolin-4-yl)benzenesulfonamide] | 318
CC(C)(C)c1ccc(S(=O)(=O)Nc2ccc(Cl)c3c2C(=O)N(CCc2cccnc2)C3=O)cc1 [Compound 116, 4-(tert-butyl)-N-(7-chloro-1,3-dioxo-2-(2-(pyridin-3-yl)ethyl)isoindolin-4-yl)benzenesulfonamide] | 100
CC(C)(C)c1ccc(S(=O)(=O)Nc2ccc(Cl)c3c2C(=O)N(CCc2ccc[n+]([O-])c2)C3=O)cc1 [Compound 117, 3-(2-(4-(4-(tert-butyl)phenylsulfonamido)-7-chloro-1,3-dioxoisoindolin-2-yl)ethyl)pyridine 1-oxide] | 184
COc1ccc(N2C(=O)c3c(Cl)ccc(NS(=O)(=O)c4ccc(C(C)(C)C)cc4)c3C2=O)cn1 [Compound 118, 4-(tert-butyl)-N-(7-chloro-2-(6-methoxypyridin-3-yl)-1,3-dioxoisoindolin-4-yl)benzenesulfonamide] | 78
N#Cc1cccc(N2C(=O)c3c(Cl)ccc(NS(=O)(=O)c4ccc(OC(F)(F)F)cc4)c3C2=O)c1 [Compound 122] | 175
N#Cc1cccc(N2C(=O)c3c(Cl)ccc(NS(=O)(=O)c4ccc(OC(F)F)cc4)c3C2=O)c1 [Compound 124] | 224
CC(C)c1ccc(S(=O)(=O)Nc2ccc(Cl)c3c2C(=O)N(c2cccc(C#N)c2)C3=O)cc1 [Compound 125] | 243
CC(C)(C)c1ccc(S(=O)(=O)Nc2ccc(C#N)c3c2C(=O)N(Cc2cccc(C#N)c2)C3=O)cc1 [Compound 127, 4-(tert-butyl)-N-(7-cyano-2-(3-cyanobenzyl)-1,3-dioxoisoindolin-4-yl)benzenesulfonamide] | 153
N#Cc1cccc(CN2C(=O)c3c(Cl)ccc(NS(=O)(=O)c4ccc(Cl)c(C(F)(F)F)c4)c3C2=O)c1 [Compound 132] | 252
O=C1c2c(Cl)ccc(NS(=O)(=O)c3ccc(C(F)(F)F)cc3)c2C(=O)N1c1cncnc1 [Compound 140] | 216
Cn1cc(N2C(=O)c3c(Cl)ccc(NS(=O)(=O)c4ccc(C(C)(C)C)cc4)c3C2=O)cn1 [Compound 142] | 41
Cn1cc(N2C(=O)c3c(Cl)ccc(NS(=O)(=O)c4ccc(C(F)(F)F)cc4)c3C2=O)cn1 [Compound 143] | 64
CC(C)(C)c1ccc(S(=O)(=O)Nc2ccc(Cl)c3c2C(=O)N(c2nccs2)C3=O)cc1 [Compound 146] | 154
CC(C)c1ccc(S(=O)(=O)Nc2ccc(Cl)c3c2C(=O)N(c2cn[nH]c2)C3=O)cc1 [Compound 151] | 42
O=C1c2c(Cl)ccc(NS(=O)(=O)c3ccc(OC(F)F)cc3)c2C(=O)N1c1cn[nH]c1 [Compound 152] | 245
Cn1cnc(N2C(=O)c3c(Cl)ccc(NS(=O)(=O)c4ccc(C(F)(F)F)cc4)c3C2=O)c1 [Compound 154] | 32
Cc1ccc(NS(=O)(=O)c2ccc(C(C)(C)C)cc2)c2c1C(=O)N(c1cccnc1)C2=O [Compound 157, 4-(tert-butyl)-N-(7-methyl-1,3-dioxo-2-(pyridin-3-yl)isoindolin-4-yl)benzenesulfonamide] | 189

Compound | Ki [nM]
Cc1ccc(NS(=O)(=O)c2ccc(C(F)(F)F)cc2)c2c1C(=O)N(Cc1cccnc1)C2=O [Compound 161] | 568
Cc1ccc(NS(=O)(=O)c2ccc(OC(F)(F)F)cc2)c2c1C(=O)N(Cc1cccnc1)C2=O [Compound 162] | 1000
CC(C)(C)c1ccc(S(=O)(=O)Nc2ccc(Cl)c3c2C(=O)N(c2cncc(C#N)c2)C3=O)cc1 [Compound 177] | 73
CC(C)(C)c1ccc(S(=O)(=O)Nc2ccc(Cl)c3c2C(=O)N(c2cncs2)C3=O)cc1 [Compound 178] | 164
COc1ccc(N2C(=O)c3c(Cl)ccc(NS(=O)(=O)c4ccc(C(C)(C)C)cc4)c3C2=O)c[n+]1[O-] [Compound 180] | 78
CC(C)(C)c1ccc(S(=O)(=O)Nc2ccc(Cl)c3c2C(=O)N(c2ccc(F)nc2)C3=O)cc1 [Compound 187] | 33
Cc1ccc(N2C(=O)c3c(Cl)ccc(NS(=O)(=O)c4ccc(C(C)(C)C)cc4)c3C2=O)c[n+]1[O-] [Compound 205] | 46
CCOc1cccc(N2C(=O)c3c(Cl)ccc(NS(=O)(=O)c4ccc(C(C)(C)C)cc4)c3C2=O)[n+]1[O-] [Compound 210] | 44
Cc1ccc(CN2C(=O)c3c(Cl)ccc(NS(=O)(=O)c4ccc(C(C)(C)C)cc4)c3C2=O)cn1 [Compound 215] | 85
Cc1cc(C)nc(N2C(=O)c3c(Cl)ccc(NS(=O)(=O)c4ccc(C(C)(C)C)cc4)c3C2=O)n1 [Compound 240] | 84
CCOc1nc(C)ccc1CN1C(=O)c2c(Cl)ccc(NS(=O)(=O)c3ccc(C(C)(C)C)cc3)c2C1=O [Compound 246] | 125
Cc1ccc(CN2C(=O)c3c(Cl)ccc(NS(=O)(=O)c4ccc(C(C)(C)C)cc4)c3C2=O)c(C)n1 [Compound 248] | 70
Cc1ccc(CN2C(=O)c3c(Cl)ccc(NS(=O)(=O)c4ccc(C(C)(C)C)cc4)c3C2=O)c(C)[n+]1[O-] [Compound 252] | 33
COc1nc(C)ccc1CN1C(=O)c2c(Cl)ccc(NS(=O)(=O)c3ccc(C(C)(C)C)cc3)c2C1=O [Compound 253] | 41
COc1ccc(N2C(=O)c3c(Cl)ccc(NS(=O)(=O)c4ccc(C(C)(C)C)cc4)c3C2=O)[n+]([O-])c1C [Compound 265] | 41
COc1cnc(N2C(=O)c3c(Cl)ccc(NS(=O)(=O)c4ccc(C(C)(C)C)cc4)c3C2=O)cc1C [Compound 268] | 54
COc1cc(CN2C(=O)c3c(Cl)ccc(NS(=O)(=O)c4ccc(C(C)(C)C)cc4)c3C2=O)ccn1 [Compound 273] | 108
CC(C)(C)c1ccc(S(=O)(=O)Nc2ccc(C#N)c3c2C(=O)N(C2CCOCC2)C3=O)cc1 [Compound 277] | 28
CC(C)(C)c1ccc(S(=O)(=O)Nc2ccc(C#N)c3c2C(=O)N(Cc2ccc[n+]([O-])c2)C3=O)cc1 [Compound 280] | 37
